Molecular target: T1, Porcine Intrinsic Factor (Sus scrofa, UniProt A0A8D1ENZ1)
T1 construct: purchased Sigma
Test: Relative IF affinity of 5'O-VB12 derivatives (57CoVB12 competition, BSA-coated charcoal separation)
Conditions: inhibition of 57CoVB12 binding to porcine IF compared to unmodified VB12; 20 minutes at room temperature, pH 7.5
Method: Determination of the relative IF affinity of various 5'O-VB12 derivatives.
IF Buffer: BSA (VB12 and IF deficient) BSA (Sigma A-3902) was dissolved at 1 mg/ml in 0.1M potassium phosphate buffer pH 7.5.
^57 CoVB12 : ^57 Co stock (50 μl) (Kodak) was diluted into 50 ul of stock in 25 ml of IF buffer to give a solution of 1 ng ^57 CoVB12 /25 ml. 250 ng cold VB12 was added to 25 ml of hot ^57 CoVB12 solution to give a 10 ng/ml solution.
Porcine Intrinsic Factor: Porcine IF (Sigma) was dissolved in IF buffer at 200 Units/ml, and frozen in 500 ul lots (100 IU aliquots) until required.
BSA-coated charcoal: BSA (1%) was added to an equal volume of 5% charcoal solution of 0.1 M potassium phosphate buffer pH 7.5 and stirred gently for 30 minutes.
Ten fold up dilutions of VB12 or VB12 derivatives were prepared down to 1 ng/ml in IF buffer. An equal volume of diluted IF was added to each sample and incubated for 20 minutes at room temperature. An equal volume of the BSA-coated charcoal was added to each sample, which was mixed prior to centrifugation. Following centrifugation the supernatant and pellet of each sample were separated and ^57 CoVB12 determined by counting in a gamma counter. Data is represented as the % inhibition of ^57 CoVB2 binding when compared to unmodified VB12.

T1 sequence (A0A8D1ENZ1 29-425): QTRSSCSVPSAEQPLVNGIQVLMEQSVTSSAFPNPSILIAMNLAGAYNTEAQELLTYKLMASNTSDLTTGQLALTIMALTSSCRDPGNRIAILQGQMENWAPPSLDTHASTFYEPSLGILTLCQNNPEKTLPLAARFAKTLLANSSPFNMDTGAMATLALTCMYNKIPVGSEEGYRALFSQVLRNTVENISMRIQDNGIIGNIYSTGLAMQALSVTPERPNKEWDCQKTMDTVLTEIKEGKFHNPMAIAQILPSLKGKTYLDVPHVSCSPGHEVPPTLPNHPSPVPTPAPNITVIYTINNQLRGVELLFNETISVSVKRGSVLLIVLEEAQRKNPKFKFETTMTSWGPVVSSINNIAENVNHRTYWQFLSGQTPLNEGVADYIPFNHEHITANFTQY

Substance | % binding relative to vitamin B12 [%]
5'OH-(adipylhydrazidyl)-VB12 [adiphylhydrazidyl-5'O-VB12] | 29
5'OH-(aminobutyl)-VB12 [aminobutyl-5'O-VB12] | 27
5'OH-(aminododecanyl)-VB12 [aminododecanyl-5'O-VB12] | 31
5'OH-(aminoethyl)-VB12 [aminoethyl-5'O-VB12] | 40
5'OH-(aminohexyl)-VB12 [aminohexyl-5'O-VB12] | 25
5'OH-(dodecyl)-VB12 [dodecyl-5'O-VB12] | 35
5'OH-(hexadecyl)-VB12 [hexadecy-5'O-VB12] | 0.78
5'OH-(hexyl)-VB12 [hexyl-5'O-VB12] | 49
5'OH-(octadecyl)-VB12 [octadecyl-5'O-VB12] | 0.57
5'OH-(succinylhydrazidyl)-VB12 [succinylhydrazidyl-5'O-VB12] | 37
5'OH-(tetradecyl)-VB12 [tetradecyl-5'O-VB12] | 4.2
VB12 -glycine acid [HO-Gly-5'O-VB12] | 25

From patent publication US6150341A, “Vitamin B12 derivatives and methods for their preparation” (Biotch Australia Pty Limited, priority 1998, dated 2000)
